Test results from article PMC3923716 (PLoS Neglected Tropical Diseases, 2014).
Where two headings read alike, the source gives them in different places.

Columns and labels:
B. malayi Hsp90 = B. malayi Hsp90 (Brugia malayi, UniProt A0A0H5S7Y7); assay: Competition FP assay (displacement of Cy3B-GA), B. malayi lysate; type: binding
Protocol: (§1) The FP assay was set up essentially as described previously, [25]. […] The equilibrium binding of Cy3B-GA and recombinant human Hsp90α (Enzo Life Sciences, Farmingdale, NY USA) or parasite lysate was determined by creating a two-fold dilution series of protein/extract for an eleven-point curve with the first column containing no protein. […] All FP values are expressed in millipolarization (mP) units with the mP value of free Cy3B-GA probe set to 50. Equilibrium binding constants were determined by nonlinear regression using a one-site binding model (GraphPad Prism software).
(§2) The relative binding affinities of inhibitors to human or parasite-derived Hsp90 was determined using competitive FP binding assays. […] For parasite-derived Hsp90, an amount of parasite lysate resulting in 50% of maximal Cy3B-GA binding was used. […] Stock solutions of each compound were prepared in DMSO at a concentration of 10 mM and 3-fold serial dilutions prepared in DMSO for eleven point curves. […] The final concentration of Cy3B-GA was 6 nM and the final DMSO concentration in all wells was 0.5%. Free Cy3B-GA (mP set to 50) and buffer only (background) wells were included as controls on each plate. Plates were incubated at 8°C with gentle shaking for 20 h.

B. pahangi Hsp90 = target: T1, B. pahangi Hsp90 (Brugia pahangi, UniProt O61998); assay: Competition FP assay (displacement of Cy3B-GA), B. pahangi lysate; type: binding
T1 construct: Adult worms of B. pahangi were obtained from infected jirds; from tissue; host or cells: whole adult B. pahangi worms, ground and lysed in HFB buffer
Protocol: Adult worms of B. pahangi were obtained from infected jirds after 3–4 months, exactly as described previously and were frozen in liquid nitrogen, ground in a pestle and mortar to a fine powder and re-suspended in an appropriate volume of HFB assay buffer (20 mM HEPES, pH 7.3, 50 mM KCl, 5 mM MgCl2, 20 mM Na2MoO4, 1% NP40). Protein concentrations were estimated using the BioRad protein assay. At this point lysates were freeze-dried for shipping to the USA.
as §1, §2

[1] = test system: B. pahangi Mf (microfilariae); assay: Mf viability in vitro; type: cell-based, Brugia pahangi; conditions: for % death by day 7: Mf; for effect of lower concentrations on Mf: concentrations below the killing concentration; for condition of Mf: 250 nM, day 7
Protocol: As adult Brugia worms are limited in numbers, initial experiments assessed the effect of each drug on Mf viability. Mf were purified from infected animals essentially as described previously. In brief, following lavage of the peritoneal cavity of an infected animal with Hanks Balanced Salt Solution (HBSS) pre-warmed to 37°C, Mf were collected by centrifugation and then purified from host cells by centrifugation through lymphoprep (Sigma). This procedure was repeated twice. Mf were collected from the pellet, washed twice in HBSS and once in worm culture medium (WCM) which comprised RPMI 1640, (Invitrogen Cat No: 52400), containing 5% heat inactivated fetal calf serum, 1% glucose, 100 units/ml penicillin and 100 µg/ml streptomycin (all Invitrogen). Mf were then dispensed into the wells of a 24-well plate to give approximately 200 Mf in 2.0 ml, using a single well for each drug concentration. All procedures were carried out using aseptic techniques. The five novel compounds, plus GA and medium alone controls, were tested three times against Mf over the full range of concentrations.

adult female B. pahangi = assay: Adult female worm assay in vitro (Mf output and adult viability), continuous exposure; type: cell-based, Brugia pahangi; conditions: initial screen 2.0 µM to 100 nM, adult female worms
Protocol: For adult worm assays, adult female B. pahangi, 3–4 months old, were incubated individually in 2.0 ml of WCM overnight in 24-well plates and pre-screened for Mf production. […] For the drug experiments, six female worms of B. pahangi for each concentration of drug were cultured individually in 24-well plates in 2.0 ml of WCM containing drug, or carrier alone (DMSO) at a concentration equal to that in the highest concentration of drug. In some experiments, GA was used as a positive control. Initially, all five compounds were tested over selected concentrations starting at 2 µM to 100 nM (see Results for details). For Hsp90 inhibitors, Mf output by individual female worms is a sensitive indicator of adult worm viability and, in most experiments, was assessed at 72 h. In addition, adult worms were examined microscopically on a daily basis for 7–10 days to determine whether lower concentrations of drugs had any effects over a longer period of incubation. Results are expressed as mean Mf output ± SD over a 72 h period. Statistical significance between groups was calculated using the Mann Whitney test with P values<0.05 being considered significant.

Brugia Hsp90 = assay: Competition FP assay, Brugia Hsp90 (species not separated); type: binding
Protocol: as §1, §2

adult B. malayi worms = conditions: 48 h of drug exposure
Description: (§3) Plates were maintained for up to 10 days and the condition of adult parasites noted at regular intervals. In one experiment the effect of GA on Mf output by adult B. malayi worms was compared with B. pahangi. B. malayi worms were kindly provided by Prof. R. Maizels (University of Edinburgh). […] In all in vitro experiments, plates were viewed daily and the motility and condition of the parasites noted by two independent observers, of whom one was unaware of the contents of the well.

adult B. pahangi worms = conditions: 48 h of drug exposure
Description: as §3

recombinant human Hsp90α = target: T2, recombinant human Hsp90α (Homo sapiens, UniProt P07900); assay: Competition FP assay (displacement of Cy3B-GA), human Hsp90α; type: binding
T2 construct: purchased Enzo Life Sciences
Protocol: as §1
as §2, with “Free Cy3B-GA (mP set to 50) and buffer only (background) wells were included as controls on each plate.” left out

[2] = best fit (95% confidence intervals), read-out: B. malayi IC50
[3] = FP assay, best fit (95% confidence intervals), read-out: B. pahangi IC50
[4] = read-out: B. malayi IC50, best fit (95% confidence intervals)

SMILES	IC50 (B. malayi Hsp90; [2])	IC50 (B. pahangi Hsp90; [3])	concentration with significant effect on Mf output (adult female B. pahangi)	IC50 (B. malayi Hsp90; [4])	other results
C=CCNC1=C2C[C@@H](C)C[C@H](OC)[C@H](O)[C@@H](C)/C=C(\C)[C@H](OC(N)=O)[C@@H](OC)/C=C\C=C(/C)C(=O)NC(=CC1=O)C2=O [17-AAG]	2.5 nM	8 nM			
COc1c(C)cnc(Cn2cnc3c(Cl)nc(N)nc32)c1C [BIIB021]			2000 nM	14 nM	concentration active on Mf ([1]; 7 days, tested 4.0 µM to 0.976 nM): 4.0 µM; % death by day 7 ([1]; 4.0 µM): 100%; effect of lower concentrations on Mf ([1]; 7 days): affected worm motility but did not kill the worms; IC50 (B. pahangi Hsp90): 16 nM
Oc1cc(O)c(-c2noc3ccc(NCCN4CCOCC4)cc23)cc1Cl [CAY10607]	16 nM	1.6 nM			higher affinity for B. pahangi Hsp90 compared to B. malayi Hsp90 (Brugia Hsp90): 10 fold
CCc1cc(-c2n[nH]c(C)c2-c2ccc3c(c2)OCCO3)c(O)cc1O [CCT018159]	330 nM	240 nM			
COC1=C2C[C@@H](C)C[C@H](OC)[C@H](O)[C@@H](C)/C=C(\C)[C@H](OC(N)=O)[C@@H](OC)/C=C\C=C(/C)C(=O)NC(=CC1=O)C2=O [Geldanamycin]				12 nM	% death by day 7 ([1]; 31.25 nM, listed as GA): 90%; reduction in Mf output (adult B. malayi worms; 1.0 µM): 74%; reduction in Mf output (adult B. malayi worms; 2.0 µM): 93%; reduction in Mf output (adult B. pahangi worms; 1.0 µM): 78%; reduction in Mf output (adult B. pahangi worms; 2.0 µM): 92%
CCNC(=O)c1cc2c(-c3cc(OCCN4CCCC4)c(Cl)cc3Cl)nc(N)nc2s1 [NVP-BEP800]			≤ 100 nM	8.7 nM	EC50 ([1]; Brugia pahangi, 168 h, read-out: EC50 against Mf viability): ~250 nM; % death by day 7 ([1]; 500 nM): majority of Mf; effect of lower concentrations on Mf ([1]; 7 days): affected Mf motility but did not kill substantial numbers of worms; IC50 (B. pahangi Hsp90): 6.9 nM; IC50 (recombinant human Hsp90α): 13 nM; IC50 (Brugia Hsp90; read-out: IC50 for binding to Brugia Hsp90): ~7 nM
CC1(C)CC(=O)c2c(C(F)(F)F)nn(-c3ccc(C(N)=O)c(N[C@H]4CC[C@H](O)CC4)c3)c2C1 [SNX-2112]			500 nM	20 nM	condition of Mf [1]: very sluggish but still alive; IC50 (B. pahangi Hsp90): 15 nM

More lines, main results first:

IC50 (B. malayi Hsp90; [2])	IC50 (B. pahangi Hsp90; [3])	SMILES	concentration with significant effect on Mf output (adult female B. pahangi)	IC50 (B. malayi Hsp90; [4])	other results
27 nM	17 nM	CC(C)NCCCn1c(Sc2cc3c(cc2I)OCO3)nc2c(N)ncnc21 [PU-H71]			
11 nM	10 nM	CC1(C)CC(=O)c2c(C(F)(F)F)nn(-c3ccc(C(N)=O)c(N[C@H]4CCC[C@@H]4O)c3)c2C1 [SNX-9203]	≤ 100 nM		condition of Mf [1]: most worms were alive but were much less motile than controls; % death by day 7 ([1]; 500 nM): 90%; IC50 (recombinant human Hsp90α; FP assay, best fit (95% confidence intervals), read-out: HsHsp90α IC50): 3.8 nM
14 nM	11 nM	CCNC(=O)c1[nH]nc(-c2cc(Cl)c(O)cc2O)c1-c1ccc(OC)cc1 [VER-49009]			
1.2 nM	0.54 nM	CCNC(=O)c1noc(-c2cc(Cl)c(O)cc2O)c1-c1ccc(OC)cc1 [VER-50589]			
